These results are taken from ChEMBL document CHEMBL1201862, “PubChem BioAssay data set” (2004).

Test systems include HCT-116; U-251; HOP-62; K562; BT-549; LOX IMVI; A549; NCI-H23; RXF 393; SF-268; SF-539; T47D; SNB-19; EKVX; UACC-257; MDA-MB-435; OVCAR-8; Malme-3M; KM12; Hs-578T.
What all share (test): NCI anticancer screen, dose series, 48 h

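48-hour exposure; five concentrations; linearly interpolated endpoints. GI50: concentration for 50% inhibition of growth.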 Active and inactive are the calls of the source. No stated cut-off is given here; in the data, active = GI50 up to about 1.1 µM and inactive = higher. Some results are limits rather than exact numbers.

In the case of `CCOC(=O)c1cc2c(=Cc3ccc(N(C)C)cc3)c3ccccc3n2[n+]1C`, the GI50 in the assay with HCT-116 was 0.537 µM (active); with U-251 it was 0.304 µM (active); with HOP-62, < 0.01 µM (active); in the assay with K562, 0.787 µM (active); in the assay with BT-549, 0.577 µM (active); in the assay on LOX IMVI it was 1.47 µM (inactive). Besides, the GI50 in the assay on A549 was 3.71 µM (inactive); with NCI-H23, 2.55 µM (inactive); in the assay with RXF 393 it was 1.63 µM (inactive); in the assay on SF-268, 3.21 µM (inactive); in the assay on SF-539 it was 0.577 µM (active); with T47D, 3.12 µM (inactive). Besides, the GI50 is 2.15 µM (inactive) with SNB-19, 4.97 µM (inactive) with EKVX and 1.57 µM (inactive) with UACC-257.

`O=[N+]([O-])c1cc([N+](=O)[O-])c(Nn2c3ccccc3c3ccccc32)c([N+](=O)[O-])c1`: the GI50 is 1.82 µM (inactive) in the assay with U-251; 1.56 µM (inactive) in the assay with MDA-MB-435; 1.87 µM (inactive) in the assay on HOP-62; 1.14 µM (inactive) in the assay with K562; 2.18 µM (inactive) in the assay on BT-549; 2.55 µM (inactive) with OVCAR-8. The GI50 with A549 was 2.82 µM (inactive); in the assay with NCI-H23 it was 1.43 µM (inactive); in the assay with Malme-3M it was 1.42 µM (inactive); in the assay with KM12, 0.622 µM (active); in the assay on SF-268, 2.94 µM (inactive); in the assay with SF-539, 2.12 µM (inactive). The GI50 in the assay on T47D is 0.641 µM (active); in the assay with SNB-19, 3.04 µM (inactive); in the assay with EKVX, 1.64 µM (inactive); with Hs-578T, 2.46 µM (inactive).

As for `COc1ccc2[nH]c3c(C)c4ncccc4c(C)c3c2c1`, the GI50 with HCT-116 is 3.4 µM (inactive); in the assay with U-251, 8.43 µM (inactive); in the assay on MDA-MB-435, 1.82 µM (inactive); with HOP-62, 6.84 µM (inactive); in the assay on K562 it was 3.68 µM (inactive); in the assay on BT-549 it was > 10 µM (inactive). Besides, the GI50 in the assay on OVCAR-8 was 3.73 µM (inactive); in the assay with A549 it was 2.18 µM (inactive); in the assay on NCI-H23 it was > 10 µM (inactive); with Malme-3M it was 1.65 µM (inactive); with KM12, 1.93 µM (inactive); in the assay with RXF 393 it was 3.59 µM (inactive). Also, the GI50 in the assay with SF-268 is > 10 µM (inactive); in the assay on SF-539, 4.73 µM (inactive); in the assay on T47D it was > 10 µM (inactive); with SNB-19, > 10 µM (inactive); in the assay on EKVX it was 4.97 µM (inactive); in the assay with UACC-257 it was > 10 µM (inactive). Also, in the assay on Hs-578T, the GI50 was > 10 µM (inactive).

Take `CCCNCC(O)CNc1ccc(NCC(O)CNCCC)c2c1C(=O)c1ccccc1C2=O` (stereo not drawn): the GI50 is 2.56 µM (inactive) in the assay on HCT-116; 2.57 µM (inactive) with U-251; 2.81 µM (inactive) in the assay with MDA-MB-435; 1.82 µM (inactive) with HOP-62; 2.14 µM (inactive) in the assay with K562; 2.14 µM (inactive) with BT-549. Also, the GI50 in the assay with OVCAR-8 is 2.26 µM (inactive); in the assay on LOX IMVI, 1.44 µM (inactive); in the assay on A549, 1.81 µM (inactive); with NCI-H23, 3.24 µM (inactive); with Malme-3M it was 2.7 µM (inactive); in the assay on KM12, 3.41 µM (inactive). Also, the GI50 in the assay on SF-268 was 2.03 µM (inactive); in the assay on SF-539, 1.71 µM (inactive); in the assay with T47D, 4.02 µM (inactive); in the assay with SNB-19, 1.95 µM (inactive); in the assay with EKVX it was 7.73 µM (inactive); in the assay with UACC-257, 7.85 µM (inactive). The GI50 in the assay on Hs-578T is 3.61 µM (inactive).

As to `N#CCCN(CCC#N)c1ccc(C(/N=N/c2ccccc2)=N\c2ccccc2)cc1`, the GI50 in the assay on HCT-116 is > 100 µM (inactive); with U-251, > 100 µM (inactive); in the assay with MDA-MB-435, > 100 µM (inactive); in the assay with HOP-62 it was > 100 µM (inactive); in the assay with K562 it was > 100 µM (inactive); in the assay on BT-549 it was 13 µM (inactive). The GI50 in the assay with OVCAR-8, in the assay on A549, in the assay on NCI-H23, in the assay on KM12, with RXF 393 and in the assay on SF-268 was > 100 µM (inactive) each time. The GI50 in the assay with SF-539, with T47D, in the assay with SNB-19, in the assay with EKVX, in the assay on UACC-257 and in the assay with Hs-578T was > 100 µM (inactive) each time.

With `O=C1C2=Cc3ccccc3OC2(O)Oc2cc(O)ccc21` (stereo not drawn), the GI50 with HCT-116, with U-251, in the assay with MDA-MB-435, in the assay on HOP-62, with K562 and with BT-549 was > 100 µM (inactive) in each case. The GI50 in the assay on OVCAR-8, in the assay with LOX IMVI, with A549, in the assay on NCI-H23, with Malme-3M and in the assay with KM12 was > 100 µM (inactive) throughout. The GI50 with RXF 393, in the assay with SF-268, in the assay on SF-539, in the assay on T47D, with EKVX and in the assay on UACC-257 was > 100 µM (inactive) in each case.

Take `CCn1c(=O)c2c3ccc(O)cc3oc2c2ccc(O)cc21`: the GI50 with HCT-116 was 27.2 µM (inactive); with U-251, 32.2 µM (inactive); with MDA-MB-435 it was 33.7 µM (inactive); with HOP-62, 34.4 µM (inactive); in the assay on K562, 40.6 µM (inactive); in the assay on BT-549, 26.1 µM (inactive). In addition, the GI50 in the assay on OVCAR-8 was 50.6 µM (inactive); with A549 it was 41.1 µM (inactive); with NCI-H23, 37.4 µM (inactive); with Malme-3M it was 41.7 µM (inactive); in the assay on KM12, 49.1 µM (inactive); in the assay on RXF 393, 53.7 µM (inactive). For the same compound, the GI50 with SF-268 is 36.9 µM (inactive); with SF-539 it was 34.9 µM (inactive); in the assay on T47D, 18.1 µM (inactive); with SNB-19 it was 43.8 µM (inactive); with EKVX it was 3.55 µM (inactive); in the assay with UACC-257 it was > 100 µM (inactive). In the assay with Hs-578T, the GI50 is 14.6 µM (inactive).

Turning to `CCn1c(-c2ccc(OC)cc2)nc2c1C(=O)c1ccccc1C2=O`, the GI50 was > 100 µM (inactive) with HCT-116; > 100 µM (inactive) in the assay on U-251; > 100 µM (inactive) in the assay on MDA-MB-435; 59.6 µM (inactive) in the assay with HOP-62; > 100 µM (inactive) in the assay with K562; 67.6 µM (inactive) with BT-549. Moreover, the GI50 with OVCAR-8, with A549, in the assay on NCI-H23, in the assay with Malme-3M, in the assay on KM12 and in the assay on RXF 393 was > 100 µM (inactive) throughout. Moreover, the GI50 in the assay on SF-268, in the assay with SF-539, with T47D, with SNB-19, with EKVX and in the assay with UACC-257 was > 100 µM (inactive) in each case. Also, the GI50 in the assay on Hs-578T was > 100 µM (inactive).

As to `COc1cc(/C=C2\C(=O)N(c3ccc(NC(C)=O)cc3)C(c3ccccc3)S2(=O)=O)cc(OC)c1OC` (stereo not drawn), the GI50 in the assay on HCT-116 was > 100 µM (inactive); in the assay on U-251, > 100 µM (inactive); in the assay with MDA-MB-435 it was 92.9 µM (inactive); in the assay on HOP-62, > 100 µM (inactive); in the assay with K562, 39.9 µM (inactive); with BT-549 it was > 100 µM (inactive). The GI50 in the assay on OVCAR-8, with LOX IMVI, in the assay with A549, in the assay with NCI-H23, with Malme-3M and in the assay on KM12 was > 100 µM (inactive) throughout. For the same compound, the GI50 is > 100 µM (inactive) in the assay with RXF 393; > 100 µM (inactive) in the assay with SF-539; 28.6 µM (inactive) with T47D; > 100 µM (inactive) in the assay on SNB-19; 91.4 µM (inactive) with EKVX; > 100 µM (inactive) in the assay with UACC-257.

As to `CC(=O)OCC1=C(C)C(OC(=O)C(OC(C)=O)[C@@H](NC(=O)c2ccccc2)c2ccccc2)CCC1(C)C` (stereo partly drawn), the GI50 in the assay on HCT-116, in the assay with U-251, in the assay on MDA-MB-435, in the assay on HOP-62, in the assay with K562 and in the assay on BT-549 was > 100 µM (inactive) each time. The GI50 with OVCAR-8, in the assay with LOX IMVI, in the assay on A549, in the assay with NCI-H23, in the assay on Malme-3M and with KM12 was > 100 µM (inactive) in each case. The GI50 in the assay on RXF 393, in the assay with SF-268, in the assay on SF-539, with T47D, in the assay on SNB-19 and in the assay with EKVX was > 100 µM (inactive) each time. Moreover, the GI50 with UACC-257 is > 100 µM (inactive).

Regarding `CCN1C(=O)c2ccccc2C1(O)c1ccc(Cl)cc1` (stereo not drawn), the GI50 is 37.7 µM (inactive) with HCT-116; 64.9 µM (inactive) in the assay on U-251; 83.2 µM (inactive) in the assay with MDA-MB-435; 78 µM (inactive) with HOP-62; > 100 µM (inactive) with K562; > 100 µM (inactive) in the assay on BT-549. In addition, the GI50 with OVCAR-8 was 52.8 µM (inactive); in the assay with LOX IMVI, 51.4 µM (inactive); with A549, 25 µM (inactive); in the assay with NCI-H23, 38.2 µM (inactive); with KM12, 46 µM (inactive); with SF-268, 79.8 µM (inactive). Also, the GI50 in the assay with SF-539 is > 100 µM (inactive); in the assay on T47D, 17.7 µM (inactive); in the assay on SNB-19 it was 20.7 µM (inactive); in the assay on EKVX, 33.3 µM (inactive); with UACC-257, 75.5 µM (inactive); in the assay with Hs-578T, > 100 µM (inactive).
